Laboratory results reported in PubChem BioAssay AID1963971 (Molecular Pharmacology Branch, DTP, NCI, 2024).
Several values for one entry are separate records, joined by “and”; a condition that tells them apart may be missing. Identical values can stand only once.

Test system: 953936-095-R-J2-PDC spheroids with HUVEC/MSC, viability
Experiment: Anticancer human tumor 953936-095-R-J2-PDC patient-derived cervical squamous cell carcinoma cell line growth inhibition [PI3K]
Conditions: for IC50: curve of first compound; for viability, T/C: stronger effect = lower value
Procedure, shortened: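 Three cell types, namely tumor cells, endothelial cells and mesenchymal stem cells, formed each spheroid. Combinations with four PI3K inhibitors were screened at clinically achievable concentrations decreasing by half-log, and spheroid viability was recorded.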

[1] = second compound 0.00316 µM, first compound 0.0316 µM
[2] = second compound 0.00316 µM, first compound 0.1 µM
[3] = second compound 0.00316 µM, first compound 0.316 µM
[4] = second compound 0.00316 µM, first compound 1 µM
[5] = second compound 0.00316 µM, first compound 3.16 µM
[6] = second compound 0.00316 µM, first compound 10 µM
[7] = second compound 0.01 µM, first compound 0.0316 µM
[8] = second compound 0.01 µM, first compound 0.1 µM
[9] = second compound 0.01 µM, first compound 0.316 µM
[10] = second compound 0.01 µM, first compound 1 µM
[11] = second compound 0.01 µM, first compound 3.16 µM
[12] = second compound 0.01 µM, first compound 10 µM
[13] = second compound 0.0316 µM, first compound 0.0316 µM
[14] = second compound 0.0316 µM, first compound 0.1 µM
[15] = second compound 0.0316 µM, first compound 0.316 µM
[16] = second compound 0.0316 µM, first compound 1 µM
[17] = second compound 0.0316 µM, first compound 3.16 µM
[18] = second compound 0.0316 µM, first compound 10 µM
[19] = second compound 0.1 µM, first compound 0.0316 µM
[20] = second compound 0.1 µM, first compound 0.1 µM
[21] = second compound 0.1 µM, first compound 0.316 µM
[22] = second compound 0.1 µM, first compound 1 µM
[23] = second compound 0.1 µM, first compound 3.16 µM
[24] = second compound 0.1 µM, first compound 10 µM
[25] = second compound 0.316 µM, first compound 0.0316 µM
[26] = second compound 0.316 µM, first compound 0.1 µM
[27] = second compound 0.316 µM, first compound 0.316 µM
[28] = second compound 0.316 µM, first compound 1 µM
[29] = second compound 0.316 µM, first compound 3.16 µM
[30] = second compound 0.316 µM, first compound 10 µM
[31] = second compound 1 µM, first compound 0.0316 µM
[32] = second compound 1 µM, first compound 0.1 µM
[33] = second compound 1 µM, first compound 0.316 µM
[34] = second compound 1 µM, first compound 1 µM
[35] = second compound 1 µM, first compound 3.16 µM
[36] = second compound 1 µM, first compound 10 µM
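Note: spheroids exposed to compounds for seven days before read-out.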

In the case of `C#Cc1c(F)ccc2cc(O)cc(-c3ncc4c(N5CC6CCC(C5)N6)nc(OCC56CCCN5CC(F)C6)nc4c3F)c12` (stereo not given) + CC(Nc1ccc2c(c1)OCCn1cc(N3C(=O)OCC3C(F)F)nc1-2)C(N)=O, the IC50 (second compound 0.00316 µM) is reported as > 10 µM, the IC50 (second compound 0.01 µM) is reported as > 10 µM and the IC50 (second compound 0.0316 µM) is reported as 7.1 µM. The IC50 (second compound 0.1 µM) was 1.02 µM, the IC50 (second compound 0.316 µM) was < 0.0316 µM and the IC50 (second compound 1 µM) was < 0.0316 µM. The viability, T/C [1] was 95.9%, the viability, T/C [2] was 110% and the viability, T/C [3] was 89.5%. It also gave a viability, T/C [4] of 87.6%, a viability, T/C [5] of 71.6% and a viability, T/C [6] of 76.3%. It also gave a viability, T/C [7] of 92.5%, a viability, T/C [8] of 95% and a viability, T/C [9] of 80.9%. The viability, T/C [10] was 88.2%, the viability, T/C [11] was 64.8% and the viability, T/C [12] was 61%. For the same compound, the viability, T/C [13] was 78.3%, the viability, T/C [14] was 81.6% and the viability, T/C [15] was 76.1%. The viability, T/C [16] was 70%, the viability, T/C [17] was 61.5% and the viability, T/C [18] was 45.2%. For the same compound, the viability, T/C [19] was 60.1%, the viability, T/C [20] was 64.7% and the viability, T/C [21] was 57.4%. The viability, T/C [22] was 48.3%, the viability, T/C [23] was 41.2% and the viability, T/C [24] was 30%. It also gave a viability, T/C [25] of 38.3%, a viability, T/C [26] of 34.6% and a viability, T/C [27] of 36.1%. For the same compound, the viability, T/C [28] was 28.2%, the viability, T/C [29] was 22.6% and the viability, T/C [30] was 17.3%. For the same compound, the viability, T/C [31] was 24%, the viability, T/C [32] was 21.9% and the viability, T/C [33] was 21.6%. The viability, T/C [34] was 16%, the viability, T/C [35] was 12.4% and the viability, T/C [36] was 9.54%.
With `CC1(C)CCC(Nc2ncc(C(F)(F)F)c(-c3c[nH]c4c(P(C)(C)=O)c(C#N)ccc34)n2)CN1` (stereo not given) the viability, T/C (compound 0.0316 µM) was 51.7% [middle of 4 runs], the viability, T/C (compound 0.1 µM) was 51.8% [middle of 4 runs] and the viability, T/C (compound 0.316 µM) was 53.5% [middle of 4 runs]. The viability, T/C (compound 1 µM) was 53.4% [middle of 4 runs], the viability, T/C (compound 3.16 µM) was 55% and 54.4% (2×) and 52.7% and the viability, T/C (compound 10 µM) was 7.36% [middle of 4 runs].
With `C=CC(=O)N1CCN(c2nc(=O)n(-c3c(C)ccnc3C(C)C)c3nc(-c4c(O)cccc4F)c(F)cc23)C(C)C1` (stereo not given) + CC(Nc1ccc2c(c1)OCCn1cc(N3C(=O)OCC3C(F)F)nc1-2)C(N)=O the IC50 (second compound 0.00316 µM) was > 10 µM, the IC50 (second compound 0.01 µM) was > 10 µM and the IC50 (second compound 0.0316 µM) was > 10 µM. The IC50 (second compound 0.1 µM) was > 10 µM, the IC50 (second compound 0.316 µM) was < 0.0316 µM and the IC50 (second compound 1 µM) was < 0.0316 µM. It also gave a viability, T/C [1] of 94.8%, a viability, T/C [2] of 94.5% and a viability, T/C [3] of 99.9%. It also gave a viability, T/C [4] of 110%, a viability, T/C [5] of 114% and a viability, T/C [6] of 112%. It also gave a viability, T/C [7] of 86.8%, a viability, T/C [8] of 91.3% and a viability, T/C [9] of 101%. It also gave a viability, T/C [10] of 101%, a viability, T/C [11] of 116% and a viability, T/C [12] of 108%. For the same compound, the viability, T/C [13] was 80%, the viability, T/C [14] was 82.5% and the viability, T/C [15] was 89.5%. For the same compound, the viability, T/C [16] was 98.6%, the viability, T/C [17] was 90.4% and the viability, T/C [18] was 94.1%. For the same compound, the viability, T/C [19] was 60.2%, the viability, T/C [20] was 56.2% and the viability, T/C [21] was 61.4%. The viability, T/C [22] was 72.3%, the viability, T/C [23] was 77.7% and the viability, T/C [24] was 69.2%. It also gave a viability, T/C [25] of 37.1%, a viability, T/C [26] of 35.3% and a viability, T/C [27] of 34.9%. It also gave a viability, T/C [28] of 42%, a viability, T/C [29] of 39.6% and a viability, T/C [30] of 35.9%. It also gave a viability, T/C [31] of 21.4%, a viability, T/C [32] of 25.3% and a viability, T/C [33] of 23.2%. The viability, T/C [34] was 24.5%, the viability, T/C [35] was 22.5% and the viability, T/C [36] was 19.6%.
